Experimental data taken from US20250163010A1, “PROCESSES FOR THE PREPARATION OF N-(1-METHYLCYCLOPROPYL)-2-(3-PYRIDINYL)-2H-INDAZOLE-4-CARBOXAMIDE AND INTERMEDIATES THEREOF” (FMC CORPORATION, priority 2022, published 2025).

Key:
[1] = Form A and Form B interconversion (competitive) slurries; assay type: physicochemical
Method: Relative thermodynamic stabilities of anhydrous/non-solvated Forms A and B were studied at 2-8° C., room temperature (RT) and at 71-72° C. via interconversion (competitive) slurries. In these slurries, a given solvent system was pre-saturated with compound 092 (Form A+minor Form B) at the stated temperature, and a portion of the liquid phase was filtered into a mixture of solids containing relatively equal amounts of Form A and Form B. Interconversion slurries at 2-8° C. and RT were allowed to stir for 22 days, while slurries at 71-72° C. stirred for shorter duration (2-4 days). […] The results are reported in table 13 below where: liquid phase for each slurry was pre-saturated using as-received Form A+minor Form B; solvent ratios are v/v; water activity values were calculated using UNIFAC calculator at RT; and times and temperatures are approximate.

[2] = Stable polymorph form screen by slurry experiments; assay type: physicochemical; conditions: between 2° C. and 73° C.; conclusion from slurries
Method: Slurry experiments were conducted to identify the stable form at various conditions. In these experiments, saturated solutions in various solvents containing excess undissolved solids (starting with Form A+minor Form B) were stirred for extended durations. Slurries at room temperature (RT) and 2-8° C. were typically conducted for approximately 2 weeks, while slurries at 72-73° C. were stirred for a shorter duration (1 day) to minimize the potential for decomposition. […] The results are shown in the table 12 where the time and temperatures are approximate.

| Compound | Final form (XRPD Result) ([1]; competitive slurry in EtOH, 71-72° C., 2 d, relatively equal amounts of Form A and Form B) | Final form (XRPD Result) ([1]; competitive slurry in EtOH, RT, 22 d, relatively equal amounts of Form A and Form B) | Final form (XRPD Result) ([1]; competitive slurry in NMP/water 80:20 (aw 0.39), 2-8° C., 22 d, relatively equal amounts of Form A and Form B) | Final form (XRPD Result) ([1]; competitive slurry in NMP/water 80:20 (aw 0.39), 71-72° C., 2 d, analyzed damp) | Final form (XRPD Result) ([1]; competitive slurry in NMP/water 80:20 (aw 0.39), RT, 22 d, relatively equal amounts of Form A and Form B) | Relative thermodynamic stability of polymorph forms ([1]; between 2° C. and 72° C., conclusion from competitive slurries) | Relative stability of polymorph forms [2] |
| --- | --- | --- | --- | --- | --- | --- | --- |
| CC1(NC(=O)c2cccc3nn(-c4cccnc4)cc23)CC1 [Form A + Form B, N-(1-methylcyclopropyl)-2-(3-pyridinyl)-2H-indazole 4-carboxamide] | Form A | Form A | Form A | Form A | Form A | – | – |
| CC1(NC(=O)c2cccc3nn(-c4cccnc4)cc23)CC1 [Form A, N-(1-methylcyclopropyl)-2-(3-pyridinyl)-2H-indazole 4-carboxamide] | – | – | – | – | – | thermodynamically stable form | more stable than Form B |
